A short description of data set [1]: Solid-liquid equilibrium temperature. Conditions: 101.3 kPa.
The nature of data set [2]: Molar enthalpy of transition or fusion. Conditions: Crystal; DSC.

± gives the expanded uncertainty stated by the source.

With `CN1CCCC1=O` [N-methylpyrrolidone], in data set [1] (Crystal), the Solid-liquid equilibrium temperature is 249.68 ± 0.4 K. For the same compound, the “Molar enthalpy of transition or fusion” value in data set [2] was found to be 2.64 ± 0.0908 kcal/mol.

`C1COCCO1` [1,4-dioxane]: the Solid-liquid equilibrium temperature in data set [1] (Crystal) was 285.08 ± 0.4 K.

Regarding `C1COCCOCCOCCOCCOCCO1` [1,4,7,10,13,16-hexaoxacyclooctadecane], the Solid-liquid equilibrium temperature in data set [1] (Crystal 1) is 311.76 ± 0.8 K.

These data come from the NIST ThermoML archive (doi:10.1016/j.fluid.2004.11.006).
